According to US20200339691A1, “PROTEINACEOUS MOLECULES AND USES THEREFOR” (priority 2018, published 2020):
Where a SMILES comes first, the peptide text is derived from it. [ ]: non-standard residue; d: D form. The star is where a group is joined. Myristoyl = CCCCCCCCCCCCCC(=O)*; Orn = NCCC[C@H](N)C(=O)O

How the values were obtained:
[1] = system: MDA-MB-231 cells; format: cell-based, human; conditions: 50 μM peptide, 48 hours, n = 1;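 for COI, Live Single Cells (Cell Count): live means Hoechst-negative events among single cells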
From the text: (§1) Non-adherent cells were removed during the washing steps.

[2] = system: CD44^hiCD24^lo CSCs in MDA-MB-231 cells; assay: FACS analysis of CD44^hiCD24^lo cancer stem cells in MDA-MB-231 cells treated with P1 analogues; format: cell-based, human; conditions: 50 μM peptide, 48 hours; for CD44^hiCD24^lo CSCs (%) / COI, Live Single CD44^hiCD24^lo CSCs (Cell Count): n = 1; for Average Inhibition of CSCs (%) / CD44^hiCD24^lo CSCs (%) Repeat 1 / CD44^hiCD24^lo CSCs (%) Repeat 2 / CD44^hiCD24^lo CSCs (%) Repeat 3: n = 3
Procedure: Analogues of P1 (Table 6) were designed and synthesized in accordance with the procedure of Example 5. The ability of these analogues to inhibit cancer stem cells was determined using FACS analysis on MDA-MB-231 cells, which constitutively contain approximately 90% CD44^hiCD24^lo cancer stem cells, treated with the peptides.
as §1

## CCCCCCCCCCCCCC(=O)N[C@@H](CC(C)C)C(=O)N[C@H](C(=O)N[C@@H](Cc1ccccc1)C(=O)N[C@H](C(=O)N[C@@H](Cc1ccccc1)C(=O)N[C@@H](CCCNC(=N)N)C(=O)N[C@@H](CC(C)C)C(=O)N[C@@H](CCCNC(=N)N)C(=O)N[C@@H](CCCCN)C(=O)NCC(=O)N[C@@H](CCCNC(=N)N)C(=O)N[C@@H](CCSC)C(=O)N[C@@H](CCSC)C(=O)N[C@@H](CC(=O)O)C(=O)N[C@@H](CCC(=O)O)C(=O)N[C@@H](CCCCN)C(=O)N[C@@H](CCCCN)C(N)=O)[C@@H](C)CC)[C@@H](C)O [Peptide 2853838, Myristoyl-LTFIFRLRKGRMMDEKK-NH2] (Myristoyl-LTFIFRLRKGRMMDEKK-NH2)
[1]
  COI (Cell Count): 408
  COI, Live Single Cells (Cell Count): 305
  COI, Single (Cell Count): 333
  Total Cell Count: 888
[2]
  Inhibition of CSCs (%) Repeat 1: 86.55%
  Inhibition of CSCs (%) Repeat 2: 81.44%
  Inhibition of CSCs (%) Repeat 3: 86.40%
  CD44^hiCD24^lo CSCs (%): 10.16%
  COI, Live Single CD44^hiCD24^lo CSCs (Cell Count): 31
  Average Inhibition of CSCs (%): 84.80%
  CD44^hiCD24^lo CSCs (%) Repeat 1: 12.05%
  CD44^hiCD24^lo CSCs (%) Repeat 2: 16.65%
  CD44^hiCD24^lo CSCs (%) Repeat 3: 12.20%

## CCCCCCCCCCCCCC(=O)N[C@H](C(=O)N[C@@H](Cc1ccccc1)C(=O)N[C@H](C(=O)N[C@@H](Cc1ccccc1)C(=O)N[C@@H](CCCNC(=N)N)C(=O)N[C@@H](CC(C)C)C(=O)N[C@@H](CCCNC(=N)N)C(=O)N[C@@H](CCCCN)C(=O)N[C@@H](C)C(=O)N[C@@H](CCCNC(=N)N)C(=O)N[C@@H](CCSC)C(=O)N[C@@H](CCSC)C(=O)N[C@@H](CC(=O)O)C(=O)N[C@H](C(=O)N[C@@H](CCCCN)C(=O)N[C@@H](CCCCN)C(N)=O)C(C)C)[C@@H](C)CC)[C@@H](C)O [Peptide 2815310, Myristoyl-TFIFRLRKARMMDVKK-NH2] (Myristoyl-TFIFRLRKARMMDVKK-NH2)
[1]
  COI (Cell Count): 18
  COI, Live Single Cells (Cell Count): 7
  COI, Single (Cell Count): 16
  Total Cell Count: 8883
[2]
  Inhibition of CSCs (%) Repeat 1: 38.81%
  Inhibition of CSCs (%) Repeat 2: 39.40%
  Inhibition of CSCs (%) Repeat 3: 41.35%
  CD44^hiCD24^lo CSCs (%): 57.14%
  COI, Live Single CD44^hiCD24^lo CSCs (Cell Count): 4
  Average Inhibition of CSCs (%): 39.85%
  CD44^hiCD24^lo CSCs (%) Repeat 1: 54.84%
  CD44^hiCD24^lo CSCs (%) Repeat 2: 54.37%
  CD44^hiCD24^lo CSCs (%) Repeat 3: 52.63%

## CCCCCCCCCCCCCC(=O)N[C@@H](CC(C)C)C(=O)N[C@H](C(=O)N[C@@H](Cc1ccccc1)C(=O)N[C@H](C(=O)N[C@@H](Cc1ccccc1)C(=O)N[C@@H](CCCNC(=N)N)C(=O)N[C@@H](CC(C)C)C(=O)N[C@@H](CCCNC(=N)N)C(=O)N[C@@H](CCCNC(C)=O)C(=O)NCC(=O)N[C@@H](CCCNC(=N)N)C(=O)N[C@@H](CCSC)C(=O)N[C@@H](CCSC)C(=O)N[C@@H](CC(=O)O)C(=O)N[C@H](C(=O)N[C@@H](CCCCN)C(=O)N[C@@H](CCCCN)C(N)=O)C(C)C)[C@@H](C)CC)[C@@H](C)O [Peptide 2853826, Myristoyl-LTFIFRLROrn(Ac)GRMMDVKK-NH2] (Myristoyl-LTFIFRLR[Orn](Ac)GRMMDVKK-NH2)
[1]
  COI (Cell Count): 554
  COI, Live Single Cells (Cell Count): 160
  COI, Single (Cell Count): 433
  Total Cell Count: 3961
[2]
  Inhibition of CSCs (%) Repeat 1: 86.74%
  Inhibition of CSCs (%) Repeat 2: 80.33%
  Inhibition of CSCs (%) Repeat 3: 87.62%
  CD44^hiCD24^lo CSCs (%): 3.13%
  COI, Live Single CD44^hiCD24^lo CSCs (Cell Count): 5
  Average Inhibition of CSCs (%): 84.90%
  CD44^hiCD24^lo CSCs (%) Repeat 1: 11.88%
  CD44^hiCD24^lo CSCs (%) Repeat 2: 17.65%
  CD44^hiCD24^lo CSCs (%) Repeat 3: 11.11%

## CCCCCCCCCCCCCC(=O)N[C@@H](CC(C)C)C(=O)N[C@H](C(=O)N[C@@H](Cc1ccccc1)C(=O)N[C@H](C(=O)N[C@@H](Cc1ccccc1)C(=O)N[C@@H](CCCNC(=N)N)C(=O)N[C@@H](CCC(=O)O)C(=O)N[C@@H](CCCNC(=N)N)C(=O)N[C@@H](CCCCN)C(=O)NCC(=O)N[C@@H](CCCNC(=N)N)C(=O)N[C@@H](CCSC)C(=O)N[C@@H](CCSC)C(=O)N[C@@H](CC(=O)O)C(=O)N[C@H](C(=O)N[C@@H](CCCCN)C(=O)N[C@@H](CCCCN)C(N)=O)C(C)C)[C@@H](C)CC)[C@@H](C)O [Peptide 2853821, Myristoyl-LTFIFRERKGRMMDVKK-NH2] (Myristoyl-LTFIFRERKGRMMDVKK-NH2)
[1]
  COI (Cell Count): 2756
  COI, Live Single Cells (Cell Count): 2223
  COI, Single (Cell Count): 2240
  Total Cell Count: 7421
[2]
  Inhibition of CSCs (%) Repeat 1: 85.54%
  Inhibition of CSCs (%) Repeat 2: 87.64%
  Inhibition of CSCs (%) Repeat 3: 89.89%
  CD44^hiCD24^lo CSCs (%): 13.00%
  COI, Live Single CD44^hiCD24^lo CSCs (Cell Count): 289
  Average Inhibition of CSCs (%): 87.69%
  CD44^hiCD24^lo CSCs (%) Repeat 1: 12.96%
  CD44^hiCD24^lo CSCs (%) Repeat 2: 11.09%
  CD44^hiCD24^lo CSCs (%) Repeat 3: 9.08%

## CCCCCCCCCCCCCC(=O)N[C@@H](CC(C)C)C(=O)N[C@H](C(=O)N[C@@H](Cc1ccccc1)C(=O)N[C@H](C(=O)N[C@@H](Cc1ccccc1)C(=O)N[C@@H](CCC(=O)O)C(=O)N[C@@H](CC(C)C)C(=O)N[C@@H](CCCNC(=N)N)C(=O)N[C@@H](CCCCN)C(=O)NCC(=O)N[C@@H](CCCNC(=N)N)C(=O)N[C@@H](CCSC)C(=O)N[C@@H](CCSC)C(=O)N[C@@H](CC(=O)O)C(=O)N[C@H](C(=O)N[C@@H](CCCCN)C(=O)N[C@@H](CCCCN)C(N)=O)C(C)C)[C@@H](C)CC)[C@@H](C)O [Peptide 2853817, Myristoyl-LTFIFELRKGRMMDVKK-NH2] (Myristoyl-LTFIFELRKGRMMDVKK-NH2)
[1]
  COI (Cell Count): 511
  COI, Live Single Cells (Cell Count): 407
  COI, Single (Cell Count): 463
  Total Cell Count: 899
[2]
  Inhibition of CSCs (%) Repeat 1: 88.00%
  Inhibition of CSCs (%) Repeat 2: 91.08%
  Inhibition of CSCs (%) Repeat 3: 82.27%
  CD44^hiCD24^lo CSCs (%): 13.76%
  COI, Live Single CD44^hiCD24^lo CSCs (Cell Count): 56
  Average Inhibition of CSCs (%): 87.12%
  CD44^hiCD24^lo CSCs (%) Repeat 1: 10.75%
  CD44^hiCD24^lo CSCs (%) Repeat 2: 8.00%
  CD44^hiCD24^lo CSCs (%) Repeat 3: 15.91%

## CCCCCCCCCCCCCC(=O)N[C@@H](CC(C)C)C(=O)N[C@H](C(=O)N[C@@H](Cc1ccccc1)C(=O)N[C@@H](CCC(=O)O)C(=O)N[C@@H](Cc1ccccc1)C(=O)N[C@@H](CCCNC(=N)N)C(=O)N[C@@H](CC(C)C)C(=O)N[C@@H](CCCNC(=N)N)C(=O)N[C@@H](CCCCN)C(=O)NCC(=O)N[C@@H](CCCNC(=N)N)C(=O)N[C@@H](CCSC)C(=O)N[C@@H](CCSC)C(=O)N[C@@H](CC(=O)O)C(=O)N[C@H](C(=O)N[C@@H](CCCCN)C(=O)N[C@@H](CCCCN)C(N)=O)C(C)C)[C@@H](C)O [Peptide 2853810, Myristoyl-LTFEFRLRKGRMMDVKK-NH2] (Myristoyl-LTFEFRLRKGRMMDVKK-NH2)
[1]
  COI (Cell Count): 778
  COI, Live Single Cells (Cell Count): 545
  COI, Single (Cell Count): 613
  Total Cell Count: 3451
[2]
  Inhibition of CSCs (%) Repeat 1: 87.14%
  Inhibition of CSCs (%) Repeat 2: 87.82%
  Inhibition of CSCs (%) Repeat 3: 83.75%
  CD44^hiCD24^lo CSCs (%): 13.58%
  COI, Live Single CD44^hiCD24^lo CSCs (Cell Count): 74
  Average Inhibition of CSCs (%): 86.23%
  CD44^hiCD24^lo CSCs (%) Repeat 1: 11.53%
  CD44^hiCD24^lo CSCs (%) Repeat 2: 10.93%
  CD44^hiCD24^lo CSCs (%) Repeat 3: 14.58%

## CCCCCCCCCCCCCC(=O)N[C@@H](CCC(=O)O)C(=O)N[C@H](C(=O)N[C@@H](Cc1ccccc1)C(=O)N[C@H](C(=O)N[C@@H](Cc1ccccc1)C(=O)N[C@@H](CCCNC(=N)N)C(=O)N[C@@H](CC(C)C)C(=O)N[C@@H](CCCNC(=N)N)C(=O)N[C@@H](CCCCN)C(=O)NCC(=O)N[C@@H](CCCNC(=N)N)C(=O)N[C@@H](CCSC)C(=O)N[C@@H](CCSC)C(=O)N[C@@H](CC(=O)O)C(=O)N[C@H](C(=O)N[C@@H](CCCCN)C(=O)N[C@@H](CCCCN)C(N)=O)C(C)C)[C@@H](C)CC)[C@@H](C)O [Peptide 2853802, Myristoyl-ETFIFRLRKGRMMDVKK-NH2] (Myristoyl-ETFIFRLRKGRMMDVKK-NH2)
[1]
  COI (Cell Count): 7612
  COI, Live Single Cells (Cell Count): 6432
  COI, Single (Cell Count): 7095
  Total Cell Count: 9672
[2]
  Inhibition of CSCs (%) Repeat 1: 42.88%
  Inhibition of CSCs (%) Repeat 2: 46.07%
  Inhibition of CSCs (%) Repeat 3: 49.94%
  CD44^hiCD24^lo CSCs (%): 48.71%
  COI, Live Single CD44^hiCD24^lo CSCs (Cell Count): 3133
  Average Inhibition of CSCs (%): 46.30%
  CD44^hiCD24^lo CSCs (%) Repeat 1: 51.19%
  CD44^hiCD24^lo CSCs (%) Repeat 2: 48.38%
  CD44^hiCD24^lo CSCs (%) Repeat 3: 44.92%
